The IC50 is the point on the concentration scale where inhibition reaches its midpoint.

In patent US9096601B2 (CSPC Zhongqi Pharmaceutical Technology (Shijiazhuang) Co., …, priority 2010, dated 2015) one finds IC50 data, which are given here for ten molecules.

One assay concerns the target EGFR L858R mutant type (Homo sapiens (Human), UniProt P00533, L858R). Description: Kinase inhibitory activity, isotopic labeling (γ-33P-ATP). It is filed as biochemical. The settings on record: ATP 200 μM (Km). The protocol:
(§1) The object of this assay was to test the inventive compounds for the kinase inhibitory activity in vitro. In this assay, an isotopic labeling method was used to label the γ phosphate group on ATP. […] Staurosporine was used as a reference molecule (or referred to as a positive control). […] The IC50 value can be obtained by the calculation of the inhibitory rates at a series of different concentrations of the tested compounds.
(§2) To a reaction tube were successively added the buffer solution (8 mM MOPS, pH 7.0, 0.2 mM EDTA, 10 mM MnCl2), the kinase to be tested (5-10 mU) (EGFR/ALK/BTK/c-KIT/c-SRC/MET/PDGFRα/VEGFR2), the substrate for the kinase to be tested (a reference material), 10 mM of the solution of magnesium acetate and γ-^33 P-ATP, and different concentrations of the tested compounds. […] The reaction was terminated with […] of the 3% phosphate buffer solution. 10 μL of the reaction liquid was titrated on the Filtermat A membrane. The membrane was washed with 75 mM of the phosphate solution thrice (5 minutes each time), and then with methanol once, and finally dried. The membrane was subjected to a scintillation counting. The value of the scintillation counting reflected the phosphorylation level of the substrate and therefore could characterize the inhibition of the kinase activity.

In assay [1] the target is EGFR L858R/T790M double mutant type (Homo sapiens (Human), UniProt P00533, L858R/T790M). The description is as above. Format: biochemical. To be noted: ATP 45 μM (Km). As for the experimental part:
as §1, §2

The next assay has as its target EGFR wild type (Homo sapiens (Human), UniProt P00533). The assay is described as above. Format: biochemical. To be noted: ATP 10 μM (Km). As for the experimental part:
as §1, §2

The subject of assay [2] is non-small cell lung carcinoma cell strain H1975 (EGFR L858R/T790M mutation). The experiment in a line: In-vitro tumor cell proliferation inhibition, MTT. Format: cell-based, human. The settings on record: 72 hours.
In assay [3] the test system is non-small cell lung carcinoma cell strain H292 (EGFR WT). The experiment in a line: In-vitro tumor cell proliferation inhibition, MTT. It is filed as cell-based, human. To be noted: 72 hours.
Assay [4] concerns non-small cell lung carcinoma cell strain HCC827. Description: In-vitro tumor cell proliferation inhibition, MTT. Format: cell-based, human. The settings on record: 72 hours. In outline: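 Cells grown in RPMI-1640 with 10% FBS, seeded overnight (HCC827 at 6×10^4 cells/ml), then exposed to graded compound concentrations for 72 h at 37 °C, 5% CO2, with 1% DMSO solvent control. MTT absorbance at 570 nm; inhibition relative to control; triplicate wells, ≥3 repeats.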

For assay [5], the system named is non-small cell lung carcinoma cell strain PC-9 (EGFR delE746-A750 deletion mutation). The experiment in a line: In-vitro tumor cell proliferation inhibition, MTT. The settings on record: 72 hours. It is filed as cell-based, human.
The subject of assay [6] is breast carcinoma cell strain BT474. Description: In-vitro tumor cell proliferation inhibition, MTT. Format: cell-based, human. The settings on record: 72 hours. In a few lines: (§3)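 MTT colorimetric proliferation test: plated cells exposed 72 h to compound dilution series, DMSO 1% solvent control included. A570 gave inhibition relative to drug-free control; IC50 or inhibitory rate from at least three experiments. HCC827 and BT474 grown in RPMI-1640, A431 and SW620 in DMEM, both with 10% FBS.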

Assay [7] relates to breast carcinoma cell strain MDA-MB-468. The experiment in a line: In-vitro tumor cell proliferation inhibition, MTT. It is filed as cell-based, human. To be noted: 72 hours.
The test system of assay [8] is chronic granulocytic leukemia cell strain K562. The experiment in a line: In-vitro tumor cell proliferation inhibition, MTT. It is filed as cell-based, human. To be noted: 72 hours.
The test system of assay [9] is colon cancer cell strain SW480. Description: In-vitro tumor cell proliferation inhibition, MTT. To be noted: 72 hours. Format: cell-based, human.
The subject of assay [10] is colon cancer cell strain SW620. The experiment in a line: In-vitro tumor cell proliferation inhibition, MTT. It is filed as cell-based, human. To be noted: 72 hours. In a few lines: as §3
Assay [11] concerns gastric cancer cell strain MK-45. The experiment in a line: In-vitro tumor cell proliferation inhibition, MTT. It is filed as cell-based, human. The settings on record: 72 hours, read-out: MK45 (IC50).
Assay [12] deals with liver cancer cell strain Hep G2. The experiment in a line: In-vitro tumor cell proliferation inhibition, MTT. It is filed as cell-based, human. To be noted: 72 hours, read-out: HEPG2 (IC50).
The test system of assay [13] is malignant melanoma cell strain A375. The experiment in a line: In-vitro tumor cell proliferation inhibition, MTT. It is filed as cell-based, human. The settings on record: 72 hours.
Assay [14] has as its system squamous cell carcinoma cell strain A431. Description: In-vitro tumor cell proliferation inhibition, MTT. To be noted: 72 hours. Format: cell-based, human. In a few lines: as §3

Chain of EGFR wild type (P00533 25-1210): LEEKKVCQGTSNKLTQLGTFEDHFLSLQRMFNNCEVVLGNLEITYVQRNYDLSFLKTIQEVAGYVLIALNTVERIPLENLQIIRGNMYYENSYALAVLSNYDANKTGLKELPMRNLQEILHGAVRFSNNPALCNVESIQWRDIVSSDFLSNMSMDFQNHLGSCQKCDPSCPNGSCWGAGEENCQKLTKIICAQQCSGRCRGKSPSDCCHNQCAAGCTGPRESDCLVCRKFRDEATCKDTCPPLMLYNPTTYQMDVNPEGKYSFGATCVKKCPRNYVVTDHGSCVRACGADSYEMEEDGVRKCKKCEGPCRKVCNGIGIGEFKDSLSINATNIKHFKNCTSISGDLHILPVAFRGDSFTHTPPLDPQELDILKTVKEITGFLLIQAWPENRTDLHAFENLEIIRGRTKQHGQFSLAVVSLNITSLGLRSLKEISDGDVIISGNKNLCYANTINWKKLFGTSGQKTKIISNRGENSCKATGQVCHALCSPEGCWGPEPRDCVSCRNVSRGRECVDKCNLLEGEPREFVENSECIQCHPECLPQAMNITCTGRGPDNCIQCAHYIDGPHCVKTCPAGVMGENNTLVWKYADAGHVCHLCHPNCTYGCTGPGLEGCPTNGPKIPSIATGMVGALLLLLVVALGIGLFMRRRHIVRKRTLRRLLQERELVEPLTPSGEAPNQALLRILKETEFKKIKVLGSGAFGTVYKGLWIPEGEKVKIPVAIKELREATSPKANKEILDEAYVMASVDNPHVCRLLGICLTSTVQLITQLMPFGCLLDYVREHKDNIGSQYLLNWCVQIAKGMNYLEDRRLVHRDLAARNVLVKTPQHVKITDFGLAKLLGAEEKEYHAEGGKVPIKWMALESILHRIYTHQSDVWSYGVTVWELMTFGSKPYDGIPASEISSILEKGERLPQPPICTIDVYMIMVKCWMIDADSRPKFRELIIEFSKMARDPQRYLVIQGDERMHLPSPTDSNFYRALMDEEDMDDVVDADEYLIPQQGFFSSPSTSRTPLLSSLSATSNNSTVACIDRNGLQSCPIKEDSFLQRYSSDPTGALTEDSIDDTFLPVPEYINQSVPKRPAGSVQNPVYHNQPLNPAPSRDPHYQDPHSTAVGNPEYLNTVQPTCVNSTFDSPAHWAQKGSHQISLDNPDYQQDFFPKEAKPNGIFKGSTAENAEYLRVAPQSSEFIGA
Chain of EGFR L858R mutant type (P00533 25-1210 L858R): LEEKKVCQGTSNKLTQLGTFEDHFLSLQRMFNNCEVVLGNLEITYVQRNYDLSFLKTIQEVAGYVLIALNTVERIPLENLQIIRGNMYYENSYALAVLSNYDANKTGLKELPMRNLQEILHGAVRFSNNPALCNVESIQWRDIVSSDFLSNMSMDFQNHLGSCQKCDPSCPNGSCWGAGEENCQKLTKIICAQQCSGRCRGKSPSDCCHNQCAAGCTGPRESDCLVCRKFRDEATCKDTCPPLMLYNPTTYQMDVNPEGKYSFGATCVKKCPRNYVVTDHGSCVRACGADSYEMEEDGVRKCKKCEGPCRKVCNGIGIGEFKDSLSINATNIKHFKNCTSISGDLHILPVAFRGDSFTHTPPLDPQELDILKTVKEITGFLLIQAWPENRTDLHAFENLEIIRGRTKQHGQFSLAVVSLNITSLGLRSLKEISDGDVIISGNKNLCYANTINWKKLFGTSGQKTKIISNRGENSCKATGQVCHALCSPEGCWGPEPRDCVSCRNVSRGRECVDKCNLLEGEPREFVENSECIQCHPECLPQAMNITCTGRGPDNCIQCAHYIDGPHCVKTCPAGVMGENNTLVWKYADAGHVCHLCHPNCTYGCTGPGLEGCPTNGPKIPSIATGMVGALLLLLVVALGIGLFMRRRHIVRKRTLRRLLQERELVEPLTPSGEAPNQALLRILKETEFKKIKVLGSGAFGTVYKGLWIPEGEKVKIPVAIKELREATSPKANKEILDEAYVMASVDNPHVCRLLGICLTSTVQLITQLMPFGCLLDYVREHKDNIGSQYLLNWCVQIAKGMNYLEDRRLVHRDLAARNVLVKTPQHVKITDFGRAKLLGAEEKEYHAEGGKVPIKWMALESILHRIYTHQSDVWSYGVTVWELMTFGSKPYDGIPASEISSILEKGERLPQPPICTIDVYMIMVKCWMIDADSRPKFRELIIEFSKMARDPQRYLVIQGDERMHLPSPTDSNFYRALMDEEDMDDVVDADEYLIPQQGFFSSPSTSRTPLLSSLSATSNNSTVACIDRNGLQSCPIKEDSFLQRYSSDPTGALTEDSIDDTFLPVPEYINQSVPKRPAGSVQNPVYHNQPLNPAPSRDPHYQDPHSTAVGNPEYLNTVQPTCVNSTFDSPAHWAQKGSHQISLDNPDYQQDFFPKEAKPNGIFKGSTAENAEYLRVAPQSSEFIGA
Chain of EGFR L858R/T790M double mutant type (P00533 25-1210 T790M/L858R): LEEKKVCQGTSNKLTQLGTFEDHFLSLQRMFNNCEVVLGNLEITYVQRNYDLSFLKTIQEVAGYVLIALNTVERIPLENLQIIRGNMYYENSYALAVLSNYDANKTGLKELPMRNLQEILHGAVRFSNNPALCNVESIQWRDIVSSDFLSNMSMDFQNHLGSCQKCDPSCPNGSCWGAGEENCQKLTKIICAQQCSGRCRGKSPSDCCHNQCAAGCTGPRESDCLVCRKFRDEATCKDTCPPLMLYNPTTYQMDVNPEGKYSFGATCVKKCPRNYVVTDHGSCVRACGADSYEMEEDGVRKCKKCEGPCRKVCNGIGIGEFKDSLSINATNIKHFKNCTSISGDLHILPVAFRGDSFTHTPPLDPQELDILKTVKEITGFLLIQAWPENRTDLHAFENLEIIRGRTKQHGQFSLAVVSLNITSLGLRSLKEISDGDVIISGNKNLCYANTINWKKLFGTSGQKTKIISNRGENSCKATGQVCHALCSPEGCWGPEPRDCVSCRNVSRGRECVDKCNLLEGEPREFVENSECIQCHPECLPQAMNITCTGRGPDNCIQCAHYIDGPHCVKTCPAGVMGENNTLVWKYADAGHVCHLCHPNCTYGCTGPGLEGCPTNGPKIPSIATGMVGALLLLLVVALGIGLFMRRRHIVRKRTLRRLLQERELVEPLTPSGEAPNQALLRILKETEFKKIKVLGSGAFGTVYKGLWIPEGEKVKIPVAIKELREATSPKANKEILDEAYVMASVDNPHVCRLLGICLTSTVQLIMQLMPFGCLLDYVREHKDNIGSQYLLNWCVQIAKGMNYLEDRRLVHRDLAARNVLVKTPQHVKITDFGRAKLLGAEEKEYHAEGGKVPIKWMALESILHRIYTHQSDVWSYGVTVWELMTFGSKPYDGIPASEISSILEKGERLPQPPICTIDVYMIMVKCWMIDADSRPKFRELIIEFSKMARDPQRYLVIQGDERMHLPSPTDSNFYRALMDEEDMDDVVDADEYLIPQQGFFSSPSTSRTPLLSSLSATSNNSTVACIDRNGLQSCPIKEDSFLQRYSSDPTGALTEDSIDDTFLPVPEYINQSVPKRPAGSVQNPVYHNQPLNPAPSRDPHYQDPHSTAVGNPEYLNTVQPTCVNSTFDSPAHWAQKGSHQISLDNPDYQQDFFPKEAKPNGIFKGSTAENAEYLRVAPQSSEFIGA

On to `CC(C)n1c(Nc2cccc(Br)c2)nc2cnc(Nc3ccc(N4CCN(C)CC4)cc3)nc21` [Compounds 8-11], for which the IC50 against EGFR L858R mutant type stood at 0.004 µM; in assay [1] it was 0.005 µM; against EGFR wild type it was 0.007 µM; in assay [2] it was 1730 nM; in [3], 8.8 nM; in assay [4], 0.2 nM. Besides, the IC50 is 0.2 nM in assay [5]; 575 nM in assay [6]; 1190 nM in assay [7]; 366 nM in assay [8]; more than 10000 nM in [9]; 1960 nM in assay [10]. Further, the IC50 was more than 1000 nM in [11], 11200 nM in assay [12], 1390 nM in [13] and 7670 nM in assay [14].

`C#Cc1cccc(Nc2nc3cnc(Nc4ccc(N5CCN(C)CC5)cc4)nc3n2C(C)C)c1` [Compounds 8-12]: the IC50 stood at 0.003 µM at EGFR L858R mutant type; 0.003 µM in [1]; 0.004 µM against EGFR wild type; 1930 nM in assay [2]; 10.7 nM in [3]; 0.2 nM in assay [4]. For the same molecule, the IC50 in assay [5] was 0.2 nM; in assay [6], 2140 nM; in assay [7] it was 3220 nM; in assay [8], 221 nM; in [9], more than 10000 nM; in [10] it was 1290 nM. The IC50 in [11] was more than 1000 nM; in [12], 6610 nM; in [13], 3090 nM; in assay [14] it was 2570 nM.

On to `CC(C)n1c(Nc2ccc(F)c(Cl)c2)nc2cnc(Nc3ccc(N4CCN(C)CC4)cc3)nc21` [Compounds 8-13], for which the IC50 on EGFR L858R mutant type is 0.003 µM; in [1], 0.009 µM; on EGFR wild type, 0.004 µM; in assay [2], 2000 nM; in [3], 6.1 nM; in assay [4], 0.2 nM. In addition, the IC50 is 0.3 nM in assay [5]; 202 nM in [6]; 2100 nM in assay [7]; 86 nM in assay [8]; more than 10000 nM in [9]; 3680 nM in assay [10]. The IC50 in assay [11] was more than 1000 nM; in assay [12], 5960 nM; in assay [13], 838 nM; in assay [14], 1290 nM.

In the case of `CC(C)n1c(Nc2ccc(Br)cc2)nc2cnc(Nc3ccc(N4CCN(C)CC4)cc3)nc21` [Compounds 8-15], the IC50 against EGFR L858R mutant type was 0.001 µM; in [1] it was 0.015 µM; at EGFR wild type it was 0.003 µM; in assay [2] it was more than 10000 nM; in [3], 220 nM; in assay [4], 0.2 nM. Also, the IC50 in [5] is 6.4 nM; in [6], 1920 nM; in assay [7], 2300 nM; in assay [8], 303 nM; in assay [9], more than 10000 nM; in assay [10], 2990 nM. Moreover, the IC50 in assay [11] turned out to be 710 nM; in assay [12], 7790 nM; in assay [13], 775 nM; in [14], 9400 nM.

In the case of `CC(C)n1c(Nc2cccc(C(F)(F)F)c2)nc2cnc(Nc3ccc(N4CCN(C)CC4)cc3)nc21` [Compounds 8-16], the IC50 was 0.001 µM on EGFR L858R mutant type; 0.012 µM in [1]; 0.003 µM at EGFR wild type; 1820 nM in [2]; 129 nM in assay [3]; 0.2 nM in assay [4]. Moreover, the IC50 in assay [5] stood at 16.8 nM; in assay [6] it was 1370 nM; in assay [7], 1960 nM; in assay [8], 2520 nM; in [9], 6480 nM; in [10], 864 nM. For the same molecule, the IC50 was more than 1000 nM in assay [11], 10400 nM in assay [12], 3100 nM in assay [13] and 5880 nM in [14].

With `COc1cccc(Nc2nc3cnc(Nc4ccc(N5CCN(C)CC5)cc4)nc3n2C(C)C)c1` [Compounds 8-17], the IC50 at EGFR L858R mutant type amounted to 0.001 µM; in [1], 0.004 µM; against EGFR wild type it was 0.004 µM; in assay [2], 1900 nM; in assay [3], 29.6 nM; in assay [4], 0.2 nM. Besides, the IC50 is 2.5 nM in assay [5]; 635 nM in assay [6]; 783 nM in [7]; 3 nM in [8]; more than 10000 nM in [9]; more than 1000 nM in [10]. Moreover, the half-inhibitory concentration (IC50) is 664 nM in assay [11], more than 10000 nM in assay [12], 190 nM in assay [13] and 8460 nM in [14].

With `COc1ccc(Nc2nc3cnc(Nc4ccc(N5CCN(C)CC5)cc4)nc3n2C(C)C)cc1` [Compounds 8-18], the IC50 was 0.005 µM against EGFR L858R mutant type; 0.057 µM in [1]; 0.03 µM against EGFR wild type; more than 10000 nM in assay [2]; 531 nM in assay [3]; 117 nM in assay [4]. Besides, the IC50 in assay [5] is 34.9 nM; in assay [6] it was 2120 nM; in [7], 3170 nM; in assay [8], 1220 nM; in assay [9] it was more than 10000 nM; in assay [10], 4000 nM. Further, the IC50 is 1520 nM in assay [11], more than 10000 nM in assay [12], 6460 nM in assay [13] and 6350 nM in assay [14].

Consider `CC(C)n1c(Nc2ccc(NC(=O)Nc3ccc(F)c(Cl)c3)cc2)nc2cnc(Nc3ccc(N4CCN(C)CC4)cc3)nc21` [Compounds 8-21], for which the 50% inhibitory concentration (IC50) against EGFR L858R mutant type came to 0.005 µM; in assay [1], 0.005 µM; against EGFR wild type, 0.011 µM; in assay [2], 7310 nM; in assay [3] it was 1160 nM; in [4], 51.6 nM. In addition, the IC50 in assay [5] was 85.9 nM; in [6], 1590 nM; in [7], 890 nM; in assay [8], 1340 nM; in assay [9] it was more than 10000 nM; in assay [10] it was 2220 nM. The IC50 in assay [11] was found to be 1330 nM; in [12] it was 8930 nM; in assay [13], 725 nM; in assay [14], 5720 nM.

Regarding `CC(C)n1c(Nc2ccc(C(=O)Nc3cccc(F)c3)cc2)nc2cnc(Nc3ccc(N4CCN(C)CC4)cc3)nc21` [Compounds 8-22], the IC50 against EGFR L858R mutant type is 0.01 µM; in [1], 0.087 µM; on EGFR wild type, 0.117 µM; in assay [2], more than 10000 nM; in assay [3], 1730 nM; in [4], more than 1000 nM. Also, the IC50 was 2790 nM in assay [5]; 1720 nM in assay [6]; 1720 nM in assay [7]; 921 nM in [8]; more than 10000 nM in assay [9]; 1920 nM in [10]. Besides, the IC50 in assay [11] was 511 nM; in [12] it was more than 10000 nM; in [13], 1300 nM; in assay [14] it was 5520 nM.

As to `CN1CCN(c2ccc(Nc3ncc4nc(Nc5ccccc5)n(C5CC5)c4n3)cc2)CC1` [Compounds 8-23], the IC50 against EGFR L858R mutant type is 0.002 µM; in [1] it was 0.041 µM; against EGFR wild type, 0.007 µM; in [2] it was more than 10000 nM; in assay [3], 154 nM; in [4], 0.2 nM. Moreover, the IC50 in assay [5] was 35.9 nM; in [6], 6810 nM; in assay [7], 5220 nM; in assay [8], 5200 nM; in assay [9], more than 10000 nM; in assay [10], more than 10000 nM. Further, the IC50 in [11] was 2790 nM; in assay [12] it was more than 10000 nM; in assay [13], 3180 nM; in assay [14], 7040 nM.
